The term Ki denotes the dissociation constant of the complex between target and ligand, obtained from inhibition or displacement. Broadly, the IC50 is the midpoint of a concentration-inhibition curve.

These results are taken from ChEMBL document CHEMBL1135292, “A practical synthesis of (S) 3-tert-butoxycarbonylamino-2-oxo-2,3,4,5-tetrahydro-1,5-benzodiazepine-1-acetic acid methyl ester as a conformationally restricted dipeptido-mimetic for caspase-1 (ICE) inhibitors” (Bioorg Med Chem Lett, 2002).

In test [1] the target is T1, Caspase-1 (Homo sapiens, UniProt P29466).
T1 sequence (P29466 whole entry): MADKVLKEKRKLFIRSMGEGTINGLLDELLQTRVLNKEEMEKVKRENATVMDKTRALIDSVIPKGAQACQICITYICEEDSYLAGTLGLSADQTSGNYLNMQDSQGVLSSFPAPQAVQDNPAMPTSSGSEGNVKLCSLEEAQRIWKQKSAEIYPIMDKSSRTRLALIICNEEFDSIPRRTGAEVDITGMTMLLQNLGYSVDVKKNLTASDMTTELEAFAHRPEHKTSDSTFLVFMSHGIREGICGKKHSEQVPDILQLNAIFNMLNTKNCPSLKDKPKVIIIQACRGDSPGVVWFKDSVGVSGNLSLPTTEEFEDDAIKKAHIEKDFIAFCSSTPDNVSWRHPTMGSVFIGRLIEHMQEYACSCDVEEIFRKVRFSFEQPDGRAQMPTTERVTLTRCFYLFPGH
Nature of the test: Compound was tested for inhibitory activity against IL-1 beta converting enzyme.

The species entered for test [2] is Homo sapiens. Nature of the test: Ability to block the release of interleukin-1 beta from human whole blood stimulated with heat-killed staphylococcus aureus. Format: functional, organism-based.

The structures appear in SMILES notation.

For `O=C(CN1C(=O)[C@@H](NC(=O)c2ccccc2)CN(C(=O)CCc2ccccc2)c2ccccc21)N[C@H]1CC(=O)OC1O` (some centres not stated), the Ki in test [1] stood at 90 nM.

`CC(=O)N[C@@H](Cc1ccc(O)cc1)C(=O)N[C@H](C(=O)N[C@@H](C)C(=O)N[C@H]1CC(=O)OC1O)C(C)C` (some centres not stated) had an IC50 in test [2] of 4 µM. This lies in the single-digit micromolar range.
